# Assay results as given in publication PMC9965221, “Antiviral Mechanism of Virucidal Sialic Acid Modified Cyclodextrin” (Pharmaceutics, 2023).
# Biological target: T1, recombinant HA (A/California/04/2009, Met1-Gln549) (Influenza A virus (A/California/04/2009(H1N1)), UniProt C3W5S1)
# T1 construct: Met1-Gln549, His-tagged recombinant, immobilised on anti-His probes
# Assay type: binding
# T1 sequence (C3W5S1 entry or part of it, added parts left off): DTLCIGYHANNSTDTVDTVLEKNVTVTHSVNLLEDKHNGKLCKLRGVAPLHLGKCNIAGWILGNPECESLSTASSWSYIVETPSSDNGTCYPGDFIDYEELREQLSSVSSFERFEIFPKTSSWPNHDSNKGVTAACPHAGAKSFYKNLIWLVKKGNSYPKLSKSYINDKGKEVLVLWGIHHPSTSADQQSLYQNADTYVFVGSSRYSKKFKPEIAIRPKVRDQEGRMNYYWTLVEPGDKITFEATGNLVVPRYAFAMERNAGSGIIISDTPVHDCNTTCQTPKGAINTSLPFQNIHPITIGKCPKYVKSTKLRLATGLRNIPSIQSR
smiles,measurement,value
CC(=O)N[C@H]1[C@H]([C@H](O)[C@H](O)CO)O[C@@](OC[C@H]2O[C@@H](O[C@H]3[C@H](O)[C@@H](NC(C)=O)C(O)O[C@@H]3CO)[C@H](O)[C@@H](O)[C@H]2O)(C(=O)O)C[C@@H]1O (stereo partly shown) [6′SLN],Kd,> 5 mM
